Results from the supplement of paper PMC6045584.
± gives the standard deviation of the averaged measurements.

Experiments:
TIOGUANINE [1] = compound: T1, Nc1nc2[nH]cnc2c(=S)[nH]1 [TIOGUANINE]; assay: area under dose-response curve of surviving fraction (unscaled, Aref=0) (surviving fraction x log10(nM)); higher = more resistant; details: exposure time: 5 days; dose range 0.5-1000 nM
Outline: (§1)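 Inhibitor was applied to tumour cell lines at eight concentrations (0.5 to 1000 nM) for five days in 384-well plates. Luminescence from CellTiter-Glo, scaled to DMSO-only wells, gave surviving fractions in three screens per line, and these were fitted by 3-parameter logistic regression with the drc R package. The area under the curve is an unscaled activity area. Aref was 0, and dose was on a log10 scale.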

MDV3100 [2] = compound: T2, CNC(=O)c1ccc(N2C(=S)N(c3ccc(C#N)c(C(F)(F)F)c3)C(=O)C2(C)C)cc1F [MDV3100]; assay: as above; details: exposure time: 5 days; dose range 0.5-1000 nM
Outline: as §1

SNX-5422 [3] = compound: T3, CC1(C)CC(=O)c2c(C(F)(F)F)nn(-c3ccc(C(N)=O)c(N[C@H]4CC[C@H](OC(=O)CN)CC4)c3)c2C1 [SNX-5422]; assay: as above; details: exposure time: 5 days; dose range 0.5-1000 nM
Outline: as §1

CANERTINIB [4] = compound: T4, C=CC(=O)Nc1cc2c(Nc3ccc(F)c(Cl)c3)ncnc2cc1OCCCN1CCOCC1 [CANERTINIB]; assay: as above; details: exposure time: 5 days; dose range 0.5-1000 nM
Outline: as §1

AFATINIB [5] = compound: T5, CN(C)C/C=C/C(=O)Nc1cc2c(Nc3ccc(F)c(Cl)c3)ncnc2cc1O[C@H]1CCOC1 [AFATINIB]; assay: as above; details: exposure time: 5 days; dose range 0.5-1000 nM
Outline: as §1

SAPACITABINE [6] = compound: T6, CCCCCCCCCCCCCCCC(=O)Nc1ccn([C@@H]2O[C@H](CO)[C@@H](O)[C@@H]2C#N)c(=O)n1 [SAPACITABINE]; assay: as above; details: exposure time: 5 days; dose range 0.5-1000 nM
Outline: as §1

[7] = compound: Cn1cc(C2=Nc3cc(NC(=O)C(N)C4CCCCC4)cc4c3C2=CNNC4=O)cn1; assay: as above; details: exposure time: 5 days; dose range 0.5-1000 nM
Outline: as §1

BI-2536 [8] = compound: T7, CC[C@@H]1C(=O)N(C)c2cnc(Nc3ccc(C(=O)NC4CCN(C)CC4)cc3OC)nc2N1C1CCCC1 [BI-2536]; assay: as above; details: exposure time: 5 days; dose range 0.5-1000 nM
Outline: as §1

TIOGUANINE [9] = compound: T1, TIOGUANINE; assay: surviving fraction relative to DMSO-only wells; higher = less growth inhibition; details: exposure time: 5 days
Outline: (§2)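 Tumour cell lines were grown to log phase and seeded at 250–500 cells per well in 384-well plates. They were exposed continuously to inhibitors at 0.5, 1, 5, 10, 50, 100, 500 and 1000 nM for five days, beginning 24 hours after seeding. Surviving fraction is CellTiter-Glo luminescence normalised to the median of DMSO-only wells.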

MDV3100 [10] = compound: T2, MDV3100; assay: as above; details: exposure time: 5 days
Outline: as §2

SNX-5422 [11] = compound: T3, SNX-5422; assay: as above; details: exposure time: 5 days
Outline: as §2

CANERTINIB [12] = compound: T4, CANERTINIB; assay: as above; details: exposure time: 5 days
Outline: as §2

AFATINIB [13] = compound: T5, AFATINIB; assay: as above; details: exposure time: 5 days
Outline: as §2

SAPACITABINE [14] = compound: T6, SAPACITABINE; assay: as above; details: exposure time: 5 days
Outline: as §2

[15] = compound: Cn1cc(C2=Nc3cc(NC(=O)C(N)C4CCCCC4)cc4c3C2=CNNC4=O)cn1; assay: as above; details: exposure time: 5 days
Outline: as §2

BI-2536 [16] = compound: T7, BI-2536; assay: as above; details: exposure time: 5 days
Outline: as §2

With NCIH441 LUNG as the test system, how does the “area under dose-response curve” value (TIOGUANINE [1]) read?
Its value is 3.28.

What about the “area under dose-response curve” value (MDV3100 [2]) of the same test system?
The value was 3.25.

And the “area under dose-response curve” value (SNX-5422 [3])?
The value was 2.63.

And the “area under dose-response curve” value (CANERTINIB [4])?
The value was 3.05.

What about the “area under dose-response curve” value (AFATINIB [5]) of the same test system?
Its value is 3.02.

And the “area under dose-response curve” value (SAPACITABINE [6])?
The value was 2.28.

What about the “area under dose-response curve” value [7] of the same test system?
Its value is 2.85.

And the “area under dose-response curve” value (BI-2536 [8])?
Its value is 1.79.

And the surviving fraction (TIOGUANINE [9]; 0.5 nM)?
The surviving fraction was 0.963 ± 0.053.

And the surviving fraction (TIOGUANINE [9]; 1 nM)?
Its surviving fraction is 1.03 ± 0.082.

And the surviving fraction (TIOGUANINE [9]; 5 nM)?
The surviving fraction was 0.971 ± 0.032.

What about the surviving fraction (TIOGUANINE [9]; 10 nM) of the same test system?
The surviving fraction was 0.955 ± 0.079.

What about the surviving fraction (TIOGUANINE [9]; 50 nM) of the same test system?
Its surviving fraction is 1.03 ± 0.024.

What about the surviving fraction (TIOGUANINE [9]; 100 nM) of the same test system?
The surviving fraction was 1.02 ± 0.017.

What about the surviving fraction (TIOGUANINE [9]; 500 nM) of the same test system?
Its surviving fraction is 1.01 ± 0.091.

What about the surviving fraction (TIOGUANINE [9]; 1000 nM) of the same test system?
Its surviving fraction is 0.976 ± 0.058.

And the surviving fraction (MDV3100 [10]; 0.5 nM)?
Its surviving fraction is 1.02 ± 0.05.

And the surviving fraction (MDV3100 [10]; 1 nM)?
The surviving fraction was 1.04 ± 0.066.

What about the surviving fraction (MDV3100 [10]; 5 nM) of the same test system?
Its surviving fraction is 1.03 ± 0.052.

What about the surviving fraction (MDV3100 [10]; 10 nM) of the same test system?
Its surviving fraction is 1 ± 0.071.

And the surviving fraction (MDV3100 [10]; 50 nM)?
The surviving fraction was 1.05 ± 0.077.

And the surviving fraction (MDV3100 [10]; 100 nM)?
The surviving fraction was 0.924 ± 0.11.

And the surviving fraction (MDV3100 [10]; 500 nM)?
The surviving fraction was 0.956 ± 0.16.

And the surviving fraction (MDV3100 [10]; 1000 nM)?
Its surviving fraction is 0.863 ± 0.11.

What about the surviving fraction (SNX-5422 [11]; 0.5 nM) of the same test system?
Its surviving fraction is 0.996 ± 0.029.

And the surviving fraction (SNX-5422 [11]; 1 nM)?
The surviving fraction was 0.976 ± 0.036.

What about the surviving fraction (SNX-5422 [11]; 5 nM) of the same test system?
The surviving fraction was 0.972 ± 0.076.

And the surviving fraction (SNX-5422 [11]; 10 nM)?
The surviving fraction was 1.03 ± 0.062.

What about the surviving fraction (SNX-5422 [11]; 50 nM) of the same test system?
Its surviving fraction is 0.748 ± 0.093.

And the surviving fraction (SNX-5422 [11]; 100 nM)?
Its surviving fraction is 0.748 ± 0.062.

What about the surviving fraction (SNX-5422 [11]; 500 nM) of the same test system?
Its surviving fraction is 0.365 ± 0.04.

And the surviving fraction (SNX-5422 [11]; 1000 nM)?
Its surviving fraction is 0.324 ± 0.019.

What about the surviving fraction (CANERTINIB [12]; 0.5 nM) of the same test system?
The surviving fraction was 0.951 ± 0.059.

And the surviving fraction (CANERTINIB [12]; 1 nM)?
The surviving fraction was 1.02 ± 0.02.

And the surviving fraction (CANERTINIB [12]; 5 nM)?
Its surviving fraction is 1.01 ± 0.029.

And the surviving fraction (CANERTINIB [12]; 10 nM)?
The surviving fraction was 1.03 ± 0.07.

What about the surviving fraction (CANERTINIB [12]; 50 nM) of the same test system?
Its surviving fraction is 0.918 ± 0.1.

What about the surviving fraction (CANERTINIB [12]; 100 nM) of the same test system?
Its surviving fraction is 0.923 ± 0.0095.

And the surviving fraction (CANERTINIB [12]; 500 nM)?
Its surviving fraction is 0.736 ± 0.098.

And the surviving fraction (CANERTINIB [12]; 1000 nM)?
The surviving fraction was 0.635 ± 0.086.

What about the surviving fraction (AFATINIB [13]; 0.5 nM) of the same test system?
Its surviving fraction is 1.15 ± 0.086.

What about the surviving fraction (AFATINIB [13]; 1 nM) of the same test system?
Its surviving fraction is 1.11 ± 0.042.

And the surviving fraction (AFATINIB [13]; 5 nM)?
Its surviving fraction is 1.1 ± 0.1.

What about the surviving fraction (AFATINIB [13]; 10 nM) of the same test system?
Its surviving fraction is 1.04 ± 0.04.

And the surviving fraction (AFATINIB [13]; 50 nM)?
The surviving fraction was 1.03 ± 0.042.

And the surviving fraction (AFATINIB [13]; 100 nM)?
Its surviving fraction is 0.851 ± 0.11.

What about the surviving fraction (AFATINIB [13]; 500 nM) of the same test system?
Its surviving fraction is 0.686 ± 0.027.

What about the surviving fraction (AFATINIB [13]; 1000 nM) of the same test system?
Its surviving fraction is 0.409 ± 0.017.

And the surviving fraction (SAPACITABINE [14]; 0.5 nM)?
The surviving fraction was 1.042 ± 0.009.

And the surviving fraction (SAPACITABINE [14]; 1 nM)?
The surviving fraction was 0.975 ± 0.077.

And the surviving fraction (SAPACITABINE [14]; 5 nM)?
Its surviving fraction is 1.02 ± 0.036.

And the surviving fraction (SAPACITABINE [14]; 10 nM)?
The surviving fraction was 0.913 ± 0.034.

And the surviving fraction (SAPACITABINE [14]; 50 nM)?
The surviving fraction was 0.53 ± 0.023.

And the surviving fraction (SAPACITABINE [14]; 100 nM)?
The surviving fraction was 0.363 ± 0.051.

And the surviving fraction (SAPACITABINE [14]; 500 nM)?
Its surviving fraction is 0.34 ± 0.025.

And the surviving fraction (SAPACITABINE [14]; 1000 nM)?
The surviving fraction was 0.312 ± 0.023.

And the surviving fraction ([15]; 0.5 nM)?
Its surviving fraction is 0.975 ± 0.037.

What about the surviving fraction ([15]; 1 nM) of the same test system?
The surviving fraction was 1.01 ± 0.018.

And the surviving fraction ([15]; 5 nM)?
The surviving fraction was 1.01 ± 0.05.

What about the surviving fraction ([15]; 10 nM) of the same test system?
The surviving fraction was 1.06 ± 0.084.

What about the surviving fraction ([15]; 50 nM) of the same test system?
Its surviving fraction is 1.04 ± 0.024.

What about the surviving fraction ([15]; 100 nM) of the same test system?
Its surviving fraction is 0.895 ± 0.078.

And the surviving fraction ([15]; 500 nM)?
The surviving fraction was 0.401 ± 0.031.

What about the surviving fraction ([15]; 1000 nM) of the same test system?
The surviving fraction was 0.319 ± 0.0068.

And the surviving fraction (BI-2536 [16]; 0.5 nM)?
Its surviving fraction is 1.03 ± 0.16.

What about the surviving fraction (BI-2536 [16]; 1 nM) of the same test system?
Its surviving fraction is 0.859 ± 0.11.

What about the surviving fraction (BI-2536 [16]; 5 nM) of the same test system?
The surviving fraction was 0.571 ± 0.057.

What about the surviving fraction (BI-2536 [16]; 10 nM) of the same test system?
The surviving fraction was 0.499 ± 0.041.

And the surviving fraction (BI-2536 [16]; 50 nM)?
Its surviving fraction is 0.502 ± 0.03.

What about the surviving fraction (BI-2536 [16]; 100 nM) of the same test system?
Its surviving fraction is 0.507 ± 0.022.

And the surviving fraction (BI-2536 [16]; 500 nM)?
The surviving fraction was 0.36 ± 0.028.

And the surviving fraction (BI-2536 [16]; 1000 nM)?
The surviving fraction was 0.228 ± 0.01.
